Experimental data from US20170058288A1, “OSNF-YA7 GENE FOR INCREASING DROUGHT STRESS RESISTANCE OF PLANT AND USE THEREOF” (SNU R&DB FOUNDATION, priority 2014, published 2017).

Tests used:
OsNF-YA4 = OsNF-YA4 gene expression in response to ABA treatment (qRT-PCR); assay type: in vivo, rice (Oryza sativa); settings: short-term treatment (24 hours) with 10 and 100 μM ABA, NT rice plant, compared to untreated control group
Method: (§1) To analyze expression patterns of OsNF-YA4 and OsNF-YA7 gene in response to abiotic stress, non-transgenic rice plants (NT plants; breed—“Nakdong”) were grown in soil for 4 week in green house. The whole plant of a 4-week old non-transgenic plant was air-dried for 3 hrs for drought stress treatment. For the treatment of salt stress, whole plants were transferred to a solution containing 200 mM of NaCl and kept for 24 hours. For the treatment of low temperature stress, whole plants were transferred to a 4° C. low temperature chamber and kept for 24 hrs. For the analysis of OsNF-YA4 and OsNF-YA7 gene expression pattern in response to ABA, NT plant were grown in MS media for 2 week in growth chamber. For the short-term treatment with ABA, the whole plants were transferred to a solution containing 10 or 100 μM ABA and treated with the solution for 24 hours. For the long-term treatment with ABA, NT plant seeds were planted and grown on MS media supplemented with 0, 0.5, 1 or 3 μM of ABA for 2 weeks.
(§2) Leaf and root tissues of a plant which has been treated with either abiotic stress or absicic acid were collected and frozen. […] To analyze the gene expression level, quantitative PCR was carried out by using Mx3000p real-time PCR machine and Platinum® SYBR® Green qPCR SuperMix-UDG system (Invitrogen, USA). […]

OsNF-YA7 = OsNF-YA7 gene expression in response to ABA treatment (qRT-PCR); assay type: in vivo, rice (Oryza sativa); settings: short-term treatment (24 hours) with 10 and 100 μM ABA, NT rice plant, compared to untreated control group
Method: as §1, §2

For `CC1=CC(=O)CC(C)(C)[C@@]1(O)/C=C/C(C)=C\C(=O)O` [ABA, Abscisic acid], which “increase in OsNF-YA4 expression level” value (OsNF-YA4) is on record?
The value was 4 fold.

What about the “decrease in OsNF-YA7 expression level” value (OsNF-YA7) of the same compound?
The value was “approximately 30%”.
